Tests used:
[1] = Measurement of serum level in dogs by HPLC; assay type: in vivo, German shepherd dogs; details: for peak serum concentration: t=1 h
Description: Serum concentrations of alizarin were determined with serum isolated from the blood of male and female German shepherd dogs (age: 8-9 months) taken at different time points (0.5 h, 1 h, 2 h, 4 h, 6 h, 8 h, 24 h) after oral intake of the indicated doses for 4 weeks. In addition, serum concentrations of alizarin (Compound-1) were determined in male and female Sprague Dawley rats (body weight: 200-250 g) treated for 1 month and/or three months by oral gavage of alizarin at a once daily dose of 100 mg/kg, 50 mg/kg, 25 mg/kg and 12.5 mg/kg. Serum proteins were removed by acetonitrile precipitation, and alizarin was extracted by chloroform before separation on an HPLC-C18 column (Poroshell 120 EC-C18, 3.0×50 mm, Agilent) with an HPLC system (Agilent 1100 Series) and detection at OD245 nm. For quantitative determination of Compound-7 and Compound-10F in rat and dog serum, serum proteins were also removed by acetonitrile precipitation before HPLC analysis as detailed above and detection at OD254 nm.

[2] = Sub-chronic oral toxicity in rats; assay type: in vivo, Sprague Dawley rats
Description: Sub-chronic toxicity studies in dogs (German Shepherd dogs) and rats (Sprague Dawley rats) were performed by the Center of Applied Analytical and Veterinary Studies, Cairo, Egypt.
The oral toxicity of alizarin (Compound-1) in rats was determined in a sub-chronic toxicity study. Rats were treated for 3 months with a once daily oral dose of alizarin of 25 mg/kg/day, 50 mg/kg/day and 100 mg/kg/day. […] The good tolerability of alizarin in rats and dogs is supported by previous observations in humans, which document that long-term treatment for several years with alizarin and alizarin-containing plant extracts is not toxic and was previously used to prevent recurrence of calcium-containing urinary stones (Lorenz et al., Methods Find. Exp. Clin. Pharmacol. 7, 637-643, 1985). Taken together, alizarin has good oral bioavailability and a wide therapeutic window.
Pharmacokinetic data of Compound-7 were determined as another representative TOMM6/Tomm6 inducer with a different chemical structure than alizarin (Compound-1). […] The oral bioavailability of Compound-7 in dogs was much higher than in rats because oral doses of Compound-7 required to achieve equivalent peak serum concentrations were approximately 10-fold higher in rats compared to dogs (FIG. 20B). Again, this observation is in agreement with the equivalent surface area dosage rule, according to which rats and mice usually require a 10-12-fold higher dose than dogs and humans. […] This second peak could reflect enterohepatic recirculation of Compound-7.

With `O=C1c2ccccc2C(=O)c2c1ccc(O)c2O` [Compound-1, 1,2-dihydroxyanthraquinone] the “oral bioavailability / serum concentrations after oral intake” value [1] was “achieves therapeutic serum concentrations”, the “time of second serum peak” value ([1]; after oral intake) was 4 h and the peak serum concentration ([1]; repeated once daily oral dose of 2 mg/kg) was 0.146 ± 0.017 µg/mL. For the same compound, the peak serum concentration ([1]; repeated once daily oral dose of 6 mg/kg) was 0.467 ± 0.022 µg/mL, the “time of peak serum concentration” value ([1]; repeated once daily oral intake of 2 mg/kg/day and 6 mg/kg/day) was 1 h and the “histopathology of heart, liver, kidney” value ([2]; rats, 3 months, once daily oral 100 mg/kg) was “did not show any detectable alterations”. The “adverse effects on body, liver, heart and kidney weight, serum calcium, creatinine, BUN, ALT, AST” value ([2]; rats, 3 months, once daily oral 25, 50 and 100 mg/kg/day) was “did not find any significant adverse effects” and the “difference between therapeutic and toxic doses (therapeutic index)” value ([2]; therapeutic dose 10 mg/kg once daily in rodent models) was “more than 10 fold”.

Source: patent US20210186947A1, “TOMM6-INTERACTING EXTRACTS AND COMPOUNDS FOR USE IN THE TREATMENT AND PROPHYLAXIS OF NERVOUS SYSTEM DISEASES, ATHEROSCLEROSIS, HEPATITIS B INFECTION AND HUMAN PAPILLOMA VIRUS (HPV) INFECTION” (ETH ZURICH, priority 2018, published 2021)
